Assays:
Toll-like receptor 8 [1] = molecular target: T1, Toll-like receptor 8 (Homo sapiens, UniProt Q9NR97); assay: Antagonist activity at human TLR8 expressed in Drosophila S2 by TR-FRET assay
T1 sequence (Q9NR97 whole entry): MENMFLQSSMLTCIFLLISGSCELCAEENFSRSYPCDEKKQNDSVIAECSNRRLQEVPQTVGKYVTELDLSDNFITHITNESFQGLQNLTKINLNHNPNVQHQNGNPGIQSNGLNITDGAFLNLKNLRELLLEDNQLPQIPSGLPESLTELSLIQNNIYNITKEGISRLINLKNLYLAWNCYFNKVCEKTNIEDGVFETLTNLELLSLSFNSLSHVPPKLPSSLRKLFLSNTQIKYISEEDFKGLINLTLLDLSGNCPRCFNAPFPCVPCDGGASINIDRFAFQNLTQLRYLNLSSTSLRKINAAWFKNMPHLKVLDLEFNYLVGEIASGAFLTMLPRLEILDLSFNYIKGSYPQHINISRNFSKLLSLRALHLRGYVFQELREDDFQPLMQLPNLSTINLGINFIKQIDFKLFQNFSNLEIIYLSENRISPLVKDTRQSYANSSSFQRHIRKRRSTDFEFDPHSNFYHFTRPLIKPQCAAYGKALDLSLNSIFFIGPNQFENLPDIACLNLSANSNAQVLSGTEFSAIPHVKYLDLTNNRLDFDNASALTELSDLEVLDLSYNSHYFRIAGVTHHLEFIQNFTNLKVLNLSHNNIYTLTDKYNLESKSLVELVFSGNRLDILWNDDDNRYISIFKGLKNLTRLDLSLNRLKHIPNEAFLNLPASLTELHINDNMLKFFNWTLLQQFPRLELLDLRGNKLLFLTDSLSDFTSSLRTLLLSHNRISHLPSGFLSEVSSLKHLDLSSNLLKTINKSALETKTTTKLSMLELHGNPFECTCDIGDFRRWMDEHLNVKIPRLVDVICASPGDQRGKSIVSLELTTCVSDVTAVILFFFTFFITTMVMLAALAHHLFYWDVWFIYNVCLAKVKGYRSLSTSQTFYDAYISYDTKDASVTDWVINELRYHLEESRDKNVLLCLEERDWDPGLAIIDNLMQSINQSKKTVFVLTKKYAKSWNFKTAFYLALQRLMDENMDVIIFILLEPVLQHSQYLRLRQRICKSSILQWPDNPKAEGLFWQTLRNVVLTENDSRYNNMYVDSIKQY

[2] = Dissociation constant, pKa of the compound by UV spectrometric titration method; assay type: physicochemical
Toll-like receptor 8 [3] = molecular target: T1, Toll-like receptor 8; assay: Antagonist activity at human TLR8 expressed in human PBMC cells assessed as inhibition of ssRNA stimulated TNF level preincubated for 30 mins followed by stimulation and measured after 20 hrs by multiplate reader assay; assay type: cell-based
Toll-like receptor 7 = molecular target: T2, Toll-like receptor 7 (Homo sapiens, UniProt Q9NYK1); assay: Antagonist activity at human TLR7 expressed in human PBMC cells assessed as inhibition of ssRNA stimulated IFNalpha level preincubated for 30 mins followed by stimulation and measured after 20 hrs by AlphaLISA method; assay type: cell-based
T2 sequence (Q9NYK1 whole entry): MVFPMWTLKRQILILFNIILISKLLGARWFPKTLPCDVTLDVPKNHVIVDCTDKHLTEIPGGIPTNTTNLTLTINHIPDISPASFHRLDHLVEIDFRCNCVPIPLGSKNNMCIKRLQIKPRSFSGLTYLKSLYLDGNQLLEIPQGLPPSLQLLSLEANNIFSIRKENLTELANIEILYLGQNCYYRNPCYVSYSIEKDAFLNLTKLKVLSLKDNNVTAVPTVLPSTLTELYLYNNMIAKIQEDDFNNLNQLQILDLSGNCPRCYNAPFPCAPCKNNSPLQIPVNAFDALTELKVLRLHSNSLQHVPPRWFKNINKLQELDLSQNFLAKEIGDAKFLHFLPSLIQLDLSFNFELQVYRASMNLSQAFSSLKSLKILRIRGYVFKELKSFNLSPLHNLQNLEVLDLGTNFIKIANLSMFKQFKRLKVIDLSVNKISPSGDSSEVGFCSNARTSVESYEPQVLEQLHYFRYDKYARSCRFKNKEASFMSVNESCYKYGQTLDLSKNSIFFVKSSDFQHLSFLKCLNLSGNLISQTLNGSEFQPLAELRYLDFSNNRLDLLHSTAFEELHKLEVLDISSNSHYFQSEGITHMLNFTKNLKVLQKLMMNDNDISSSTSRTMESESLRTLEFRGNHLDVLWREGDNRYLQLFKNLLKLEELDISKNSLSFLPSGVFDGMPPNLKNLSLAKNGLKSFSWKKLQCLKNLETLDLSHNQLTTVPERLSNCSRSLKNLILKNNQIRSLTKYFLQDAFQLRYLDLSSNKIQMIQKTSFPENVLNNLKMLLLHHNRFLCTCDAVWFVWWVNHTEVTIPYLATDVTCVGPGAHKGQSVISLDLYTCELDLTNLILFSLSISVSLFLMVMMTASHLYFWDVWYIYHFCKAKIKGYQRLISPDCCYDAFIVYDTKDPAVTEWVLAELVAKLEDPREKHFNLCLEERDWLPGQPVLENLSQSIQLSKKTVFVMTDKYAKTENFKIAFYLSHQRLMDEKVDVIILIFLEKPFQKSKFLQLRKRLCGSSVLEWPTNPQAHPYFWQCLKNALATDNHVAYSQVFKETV

[4] = Dose normalized AUC in C57BL/6 mouse at 3 mg/kg, po and 1 mg/kg,iv administered as cassette dose measured upto 24 hrs by LC/MS/MS analysis; assay type: ADME, organism-based; set-up: dose 3 mg/kg, time <=24; conditions: in vivo
[5] = Octanol/water partition coefficient, logD of compound at pH 7.4 measured after 4 hrs by shake flask method; assay type: physicochemical
[6] = MRT in C57BL/6 mouse at 3 mg/kg, po or 1 mg/kg, iv administered as cassette dose measured upto 24 hrs by LC/MS/MS analysis; assay type: ADME, organism-based; conditions: in vivo
[7] = Oral bioavailability in C57BL/6 mouse at 3 mg/kg administered as cassette dose measured upto 24 hrs by LC/MS/MS analysis; assay type: ADME, organism-based; conditions: in vivo
[8] = Volume of distribution at steady state in C57BL/6 mouse at 3 mg/kg, po or 1 mg/kg, iv administered as cassette dose measured upto 24 hrs by LC/MS/MS analysis; assay type: ADME, organism-based; conditions: in vivo, read-out: Vdss
[9] = Clearance in C57BL6 mouse at 3 mg/kg, po or 1mg/kg, iv administered as cassette dose measured upto 24 hrs by LC/MS/MS analysis; assay type: ADME, organism-based; conditions: in vivo
[10] = molecular target: Voltage-gated inwardly rectifying potassium channel KCNH2 (Homo sapiens, UniProt Q12809); assay: Inhibition of human ERG; assay type: toxicity
Voltage-gated inwardly rectifying potassium channel KCNH2, sequence (Q12809 whole entry): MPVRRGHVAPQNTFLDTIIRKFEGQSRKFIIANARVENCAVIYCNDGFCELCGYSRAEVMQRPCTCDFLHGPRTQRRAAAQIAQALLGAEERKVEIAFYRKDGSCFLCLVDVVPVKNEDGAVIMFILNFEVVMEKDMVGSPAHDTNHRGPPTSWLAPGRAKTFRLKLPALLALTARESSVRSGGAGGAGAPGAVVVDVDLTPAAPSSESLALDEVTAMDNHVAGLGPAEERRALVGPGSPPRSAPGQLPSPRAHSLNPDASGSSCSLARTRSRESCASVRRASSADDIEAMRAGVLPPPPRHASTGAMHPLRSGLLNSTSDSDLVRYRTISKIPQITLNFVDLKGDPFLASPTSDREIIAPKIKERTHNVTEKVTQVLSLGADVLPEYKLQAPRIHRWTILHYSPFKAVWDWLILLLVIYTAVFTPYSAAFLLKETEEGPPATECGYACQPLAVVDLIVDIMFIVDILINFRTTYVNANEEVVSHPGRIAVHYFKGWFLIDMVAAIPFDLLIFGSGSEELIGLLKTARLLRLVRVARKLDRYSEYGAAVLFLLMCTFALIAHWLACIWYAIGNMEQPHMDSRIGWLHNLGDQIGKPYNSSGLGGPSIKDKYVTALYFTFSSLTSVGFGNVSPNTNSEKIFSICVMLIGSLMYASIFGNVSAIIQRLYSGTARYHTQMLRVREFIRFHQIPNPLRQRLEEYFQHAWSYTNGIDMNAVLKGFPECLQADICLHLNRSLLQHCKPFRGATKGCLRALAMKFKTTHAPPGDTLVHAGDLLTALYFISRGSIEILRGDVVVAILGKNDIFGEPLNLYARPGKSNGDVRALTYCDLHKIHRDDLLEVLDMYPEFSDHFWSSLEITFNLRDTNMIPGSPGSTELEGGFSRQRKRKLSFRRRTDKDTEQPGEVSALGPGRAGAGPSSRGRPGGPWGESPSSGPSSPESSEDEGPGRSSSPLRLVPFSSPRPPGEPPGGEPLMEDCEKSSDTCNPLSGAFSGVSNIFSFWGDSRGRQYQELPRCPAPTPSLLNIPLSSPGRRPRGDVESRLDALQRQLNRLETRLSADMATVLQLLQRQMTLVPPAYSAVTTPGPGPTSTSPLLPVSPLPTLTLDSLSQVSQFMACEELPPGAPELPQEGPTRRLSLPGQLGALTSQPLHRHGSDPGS

[11] = Dose normalized Cmax in C57BL/6 mouse at 3 mg/kg, po and 1 mg/kg, iv administered as cassette dose measured upto 24 hrs by LC/MS/MS analysis; assay type: ADME, organism-based; conditions: in vivo
Cytochrome P450 3A4 = Cytochrome P450 3A4 (Homo sapiens, UniProt P08684); assay: Inhibition of CYP3A4 (unknown origin); assay type: ADME
Cytochrome P450 3A4, sequence (P08684 whole entry): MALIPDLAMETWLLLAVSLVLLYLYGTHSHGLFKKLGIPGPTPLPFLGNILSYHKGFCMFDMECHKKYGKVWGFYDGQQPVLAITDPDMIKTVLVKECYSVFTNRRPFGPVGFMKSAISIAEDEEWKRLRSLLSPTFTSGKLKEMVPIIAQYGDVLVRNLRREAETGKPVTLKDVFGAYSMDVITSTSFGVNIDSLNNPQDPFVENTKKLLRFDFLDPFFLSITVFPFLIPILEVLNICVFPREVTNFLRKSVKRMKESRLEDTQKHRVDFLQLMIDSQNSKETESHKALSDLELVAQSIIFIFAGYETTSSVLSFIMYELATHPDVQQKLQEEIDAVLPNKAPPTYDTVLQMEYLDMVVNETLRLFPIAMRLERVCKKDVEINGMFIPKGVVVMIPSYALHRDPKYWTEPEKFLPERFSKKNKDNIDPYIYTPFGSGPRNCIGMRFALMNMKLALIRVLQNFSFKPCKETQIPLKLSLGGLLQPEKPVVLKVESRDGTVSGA

Toll-like receptor 4 = Toll-like receptor 4 (Homo sapiens, UniProt O00206); assay: Antagonist activity at human TLR4 expressed in human PBMC cells assessed as inhibition of LPS stimulated TNF level preincubated for 30 mins followed by stimulation and measured after 20 hrs by multiplate reader assay; assay type: cell-based
Toll-like receptor 4, sequence (O00206 whole entry): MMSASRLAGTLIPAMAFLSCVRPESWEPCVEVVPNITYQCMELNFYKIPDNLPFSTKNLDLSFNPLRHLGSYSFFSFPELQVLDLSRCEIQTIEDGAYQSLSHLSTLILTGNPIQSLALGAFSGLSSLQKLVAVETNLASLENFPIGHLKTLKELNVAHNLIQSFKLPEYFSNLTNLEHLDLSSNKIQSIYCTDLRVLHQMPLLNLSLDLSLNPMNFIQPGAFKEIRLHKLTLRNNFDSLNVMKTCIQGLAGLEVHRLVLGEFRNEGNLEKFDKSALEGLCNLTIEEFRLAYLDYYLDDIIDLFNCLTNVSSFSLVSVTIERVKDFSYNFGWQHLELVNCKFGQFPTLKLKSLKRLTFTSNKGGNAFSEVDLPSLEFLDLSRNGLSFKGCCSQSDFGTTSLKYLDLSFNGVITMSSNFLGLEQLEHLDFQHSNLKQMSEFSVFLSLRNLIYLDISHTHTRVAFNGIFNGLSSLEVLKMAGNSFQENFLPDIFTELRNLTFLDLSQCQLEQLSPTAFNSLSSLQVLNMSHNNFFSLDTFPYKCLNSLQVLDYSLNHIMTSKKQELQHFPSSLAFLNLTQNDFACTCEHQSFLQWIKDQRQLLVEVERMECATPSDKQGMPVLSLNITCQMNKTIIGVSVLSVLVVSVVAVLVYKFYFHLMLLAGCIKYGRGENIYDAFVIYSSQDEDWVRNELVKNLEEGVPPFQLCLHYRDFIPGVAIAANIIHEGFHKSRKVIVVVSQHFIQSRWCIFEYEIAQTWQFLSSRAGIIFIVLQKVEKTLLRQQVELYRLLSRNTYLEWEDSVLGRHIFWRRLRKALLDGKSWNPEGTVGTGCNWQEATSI

[12] = Permeability of compound in dog MDCK cells; assay type: ADME, cell-based, Canis lupus familiaris; conditions: read-out: permeability
Toll-like receptor 9 = molecular target: T3, Toll-like receptor 9 (Homo sapiens, UniProt Q9NR96); assay: Antagonist activity at human TLR9 expressed in human PBMC cells assessed as inhibition of ODN2216 stimulated IFNalpha level preincubated for 30 mins followed by stimulation and measured after 20 hrs by AlphaLISA method; assay type: cell-based
T3 sequence (Q9NR96 whole entry): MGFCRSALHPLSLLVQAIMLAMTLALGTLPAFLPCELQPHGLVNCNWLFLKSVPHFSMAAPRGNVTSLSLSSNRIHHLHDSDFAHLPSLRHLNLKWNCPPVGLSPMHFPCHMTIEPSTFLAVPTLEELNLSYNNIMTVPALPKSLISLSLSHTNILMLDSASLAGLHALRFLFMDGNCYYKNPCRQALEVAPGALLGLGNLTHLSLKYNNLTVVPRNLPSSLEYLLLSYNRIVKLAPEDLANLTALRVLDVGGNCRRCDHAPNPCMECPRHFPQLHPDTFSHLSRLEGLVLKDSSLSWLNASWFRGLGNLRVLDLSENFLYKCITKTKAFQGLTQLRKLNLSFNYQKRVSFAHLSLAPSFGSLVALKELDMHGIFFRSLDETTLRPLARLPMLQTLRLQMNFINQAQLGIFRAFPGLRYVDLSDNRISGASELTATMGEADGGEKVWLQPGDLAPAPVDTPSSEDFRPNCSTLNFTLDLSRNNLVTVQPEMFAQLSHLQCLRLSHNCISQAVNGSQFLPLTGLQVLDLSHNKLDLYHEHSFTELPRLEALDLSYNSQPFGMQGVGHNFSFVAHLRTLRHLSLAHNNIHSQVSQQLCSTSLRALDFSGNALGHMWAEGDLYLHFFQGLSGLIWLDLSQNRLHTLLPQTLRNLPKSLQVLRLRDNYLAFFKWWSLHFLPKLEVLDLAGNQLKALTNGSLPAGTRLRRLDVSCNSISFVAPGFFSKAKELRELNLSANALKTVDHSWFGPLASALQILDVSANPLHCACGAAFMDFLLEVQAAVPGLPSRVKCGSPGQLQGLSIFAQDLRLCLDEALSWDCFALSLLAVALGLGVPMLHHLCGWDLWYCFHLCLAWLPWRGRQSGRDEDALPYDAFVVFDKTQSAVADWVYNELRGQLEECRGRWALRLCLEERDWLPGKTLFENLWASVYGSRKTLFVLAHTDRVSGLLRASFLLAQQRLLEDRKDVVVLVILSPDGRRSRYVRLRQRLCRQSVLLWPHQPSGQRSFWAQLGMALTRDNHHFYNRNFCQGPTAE

Row | SMILES | IC50 (Toll-like receptor 8 [1]) [nM] | pKa [2] | IC50 (Toll-like receptor 8 [3]) [nM] | IC50 (Toll-like receptor 7) [nM] | other results
1 | COc1cc2c(C(=O)N3CCN(C)CC3)n[nH]c2cc1-c1cc(C)nc(C)c1 | 23 | 6.7 | 2.5 | – | –
2 | COc1cc2c(C(=O)N3CCN(C)CC3)n[nH]c2cc1-c1ccnc(C)c1F | 14 | 3.7 | 1.2 | > 980 | –
3 | Cc1cc(-c2cc3[nH]nc(N[C@H]4CCNC[C@@H]4F)c3cc2C2CC2)cc(C)n1 | – | 6.7 | – | 9 | –
4 | Cc1nccc(-c2cc3[nH]nc(N[C@H]4CCNC[C@@H]4F)c3cc2C2CC2)c1F | – | 3.9 | – | 0.1 | AUC [4]: 635 nM·h/mg/kg; logD at 4 h [5]: 2.5; MRT [6]: 1.8 h; bioavailability [7]: 43%; Vd [8]: 3.1 L/kg; clearance [9]: 28 mL/min/kg; IC50 [10]: 19000 nM; Cp(f)/dose [11]: 155 nM/mg/kg; IC50 (Cytochrome P450 3A4): 4500 nM
5 | COc1cc2cc[nH]c2cc1-c1ccncc1 | 2 | 5.8 | 3600 | 1700 | IC50 (Toll-like receptor 4): > 10000 nM; Papp [12]: 33 ×10⁻⁶ cm/s; IC50 (Toll-like receptor 9): > 3600 nM
6 | COc1cc2c(C(=O)N3CCN(C)CC3)n[nH]c2cc1-c1ccncc1 | – | 5.3 | – | 220 | –
7 | COc1cc2c(NC3CCN(C)CC3)n[nH]c2cc1-c1cc(C)nc(C)c1 | – | 6.7 | – | – | –
8 | Cc1cc2c(NC3CCN(C)CC3)n[nH]c2cc1-c1ccnc(C)c1F | – | 3.9 | – | 1 | –
9 | COc1cc2c(NC3CCN(C)CC3)n[nH]c2cc1-c1ccnc(C)c1F | – | 4 | – | – | –
10 | COc1cc2c(NC3CCN(C)CC3)n[nH]c2cc1-c1ccncc1 | – | 5.2 | – | 3 | –
11 | COc1cc(-c2cc3[nH]nc(NC4CCN(C)CC4)c3cc2OC)ccn1 | – | 3.4 | – | 11 | –
12 | COc1cc2cn[nH]c2cc1-c1ccncc1 | 51 | 5.4 | > 9300 | – | Papp [12]: 38 ×10⁻⁶ cm/s
13 | Cc1nccc(-c2cc3[nH]nc(NC4CCN(C)CC4)c3cc2C2CC2)c1F | 3.6 | 3.9 | 0.08 | 0.39 | AUC [4]: 485 nM·h/mg/kg; logD at 4 h [5]: 2.5; MRT [6]: 1.5 h; bioavailability [7]: 53%; Vd [8]: 4.4 L/kg; clearance [9]: 49 mL/min/kg; IC50 [10]: 11000 nM; Cmax/dose [11]: 113 nM/mg/kg; IC50 (Cytochrome P450 3A4): > 25000 nM

— ChEMBL document CHEMBL5046316, “Structure-Based Optimization of a Fragment-like TLR8 Binding Screening Hit to an In Vivo Efficacious TLR7/8 Antagonist” (ACS Med Chem Lett, 2022)
